Measured values published in patent US11161864B2, “Sting agonists” (Venenum Biodesign, LLC, priority 2018, dated 2021).
Like-named read-outs stand apart in the source and are kept apart here.

How the values were obtained:
[1] = target: murine STING protein (amino acids 154-378) (Mus musculus (Mouse), UniProt Q3TBT3); assay: Murine STING [3H] 2′,3′-cGAMP scintillation proximity competition binding assay
[2] = target: wild-type (WT) truncated human STING protein, amino acids 155-379 (Homo sapiens (Human), UniProt Q86WV6, H232R); assay: Human WT STING [3H] 2′,3′-cGAMP scintillation proximity competition binding assay
Sequence of wild-type (WT) truncated human STING protein, amino acids 155-379 (Q86WV6 155-379 H232R): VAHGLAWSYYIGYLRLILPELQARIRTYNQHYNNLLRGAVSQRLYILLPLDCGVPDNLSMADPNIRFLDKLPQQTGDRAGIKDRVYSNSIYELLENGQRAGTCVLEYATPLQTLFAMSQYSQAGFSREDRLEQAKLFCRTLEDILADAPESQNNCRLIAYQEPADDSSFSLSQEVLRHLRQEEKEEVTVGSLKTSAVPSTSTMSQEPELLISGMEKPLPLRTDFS
Source text: (§1) A human STING [^3H] 2′,3′-cGAMP scintillation proximity competition binding assay was utilized to detect binding of compounds to STING protein. […] The protein encoding plasmid contained a HIS tag, followed by an Avi tag and then a SUMO tag, which were followed by the STING coding sequence within the pET-28a (+) vector. The plasmid was transfected into a BL21 (DE3)/BirA E. coli co-expression strain. Protein was purified from the bacterial lysate using a cobalt-affinity column. The purified protein was dialyzed against PBS and then 20% glycerol was added prior to storage at −80° C.
(§2) 2′,3′-cGAMP in assay buffer (50 mM Tris pH 7.5, 100 mM NaCl, 0.1% Fatty Acid Free BSA). Test compounds (2.5 μL) were added to the plate first followed by a 25 μL mixture of STING protein, streptavidin PVT SPA beads (Perkin Elmer) and 10 μL [^3H] 2′,3′-cGAMP. Plates were incubated at room temperature for 18 hrs and read on a Wallac MicroBeta TriLux (Perkin Elmer).

[3] = target: AQ variant of truncated human STING protein, amino acids 155-379 (Homo sapiens (Human), UniProt Q86WV6, G230A/H232R/R293Q); assay: Human AQ STING [3H] 2′,3′-cGAMP scintillation proximity competition binding assay
Sequence of AQ variant of truncated human STING protein, amino acids 155-379 (Q86WV6 155-379 G230A/H232R/R293Q): as the sequence (Q86WV6 155-379 H232R) above, with G76A, R139Q counted along it
Source text: as §1, §2

[4] = read-out: Human WT Binding IC50
[5] = read-out: Human AQ Binding IC50

Sequence of murine STING protein (amino acids 154-378) (Q3TBT3 154-378): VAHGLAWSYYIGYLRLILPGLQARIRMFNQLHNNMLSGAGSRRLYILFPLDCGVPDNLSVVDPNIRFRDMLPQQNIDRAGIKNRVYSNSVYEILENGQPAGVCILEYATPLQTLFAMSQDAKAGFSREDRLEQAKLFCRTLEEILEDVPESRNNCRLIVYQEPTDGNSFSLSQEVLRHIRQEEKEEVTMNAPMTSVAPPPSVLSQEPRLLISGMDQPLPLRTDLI

| SMILES | IC50 ([1]; read-out: Murine Binding IC50) | IC50 [2, 4] | IC50 [3, 5] | also measured |
| --- | --- | --- | --- | --- |
| Nc1nc2c(ncn2[C@@H]2O[C@@H]3COP(=O)(S)OCCn4c(nc5c(N)ncnc54)COP(=O)(S)O[C@@H]2[C@@H]3F)c(=O)[nH]1 (single isomer, unassigned) [Example 7D] | < 1 µM | 1 to 9.99 µM | < 1 µM | – |
| Nc1nc2c(ncn2[C@@H]2O[C@@H]3COP(=O)(S)OCCn4c(nc5c(N)ncnc54)COP(=O)(S)O[C@@H]2[C@@H]3F)c(=O)[nH]1 (single isomer, unassigned) [Example 7B] | < 1 µM | 10 to 100 µM | 1 to 9.99 µM | – |
| CO[C@H]1[C@H]2OP(=O)(S)OCc3nc4cncnc4n3CCOP(=O)(S)OC[C@H]1O[C@H]2n1cnc2c(=O)[nH]c(N)nc21 (single isomer, unassigned) [Example 27C] | < 1 µM | < 1 µM | < 1 µM | – |
| Nc1nc2c(ncn2[C@@H]2O[C@@H]3COP(=O)(S)OCCn4c(nc5cncnc54)COP(=O)(S)O[C@@H]2[C@H]3F)c(=O)[nH]1 (single isomer, unassigned) [Example 25B] | – | 10 to 100 µM | – | – |
| COCc1ncc2nc3n(c2n1)CCOP(=O)(S)OC[C@H]1O[C@@H](n2cnc4c(=O)[nH]c(N)nc42)[C@H](OP(=O)(S)OC3)[C@@H]1F (stereo partly drawn) [Example 40C, (1S,21R,23R,24R)-23-(2-Amino-6-oxo-6,9-dihydro-H-purin-9-yl)-24-fluoro-11-(methoxymethyl)-3,18-disulfanyl-2,4,17,19,22-pentaoxa-7,10,12,14-tetraaza-3lambda5,18lambda5-diphosphatetracyclo[19.2.1.06,14.08,13]tetracosa-6,8,10,12-tetraene-3,18-dione] | < 1 µM | 10 to 100 µM | 1 to 9.99 µM | – |
| Nc1nc2c(ncn2[C@@H]2O[C@@H]3COP(=O)(O)OCCn4c(nc5cncnc54)COP(=O)(O)O[C@@H]2[C@@H]3F)c(=O)[nH]1 [Example 4, (1S,21R,23R,24R)-23-(2-Amino-6-oxo-6,9-dihydro-1H-purin-9-yl)-24-fluoro-3,18-dihydroxy-2,4,17,19,22-pentaoxa-7,10,12,14-tetraaza-3lambda5,18lambda5-diphosphatetracyclo[19.2.1.06,14.08,13]tetracosa-6,8(13),9,11-tetraene-3,18-dione] | < 1 µM | 10 to 100 µM | 1 to 9.99 µM | – |
| CO[C@H]1[C@H]2OP(=O)(S)OCc3nc4cncnc4n3CCOP(=O)(S)OC[C@H]1O[C@H]2n1cnc2c(=O)[nH]c(N)nc21 (single isomer, unassigned) [Example 27D] | < 1 µM | 1 to 9.99 µM | < 1 µM | – |
| Nc1nc2c(ncn2[C@@H]2O[C@@H]3COP(=O)(O)O[C@@H]4[C@H](O)[C@@H](COP(=O)(O)O[C@@H]2[C@@H]3O)O[C@H]4n2cnc3c(N)ncnc32)c(=O)[nH]1 [2′,2′-cGAMP, reference compound] | – | – | – | IC50 ([1]; reference compound, read-out: IC50, murine STING binding): 0.055 µM; IC50 ([2]; reference compound, read-out: IC50 using the WT STING protein): 0.562 µM; IC50 ([3]; reference compound, unit printed as 'M' (sic), read-out: IC50 using the AQ STING protein): 0.098 µM |
| Nc1nc2c(ncn2[C@@H]2O[C@@H]3COP(=O)(S)OCCn4c(nc5cncnc54)COP(=O)(S)O[C@@H]2[C@H]3F)c(=O)[nH]1 (single isomer, unassigned) [Example 25D] | – | < 1 µM | < 1 µM | – |
| Nc1nc2c(ncn2[C@@H]2O[C@@H]3COP(=O)(O)OCCn4c(nc5cncnc54)COP(=O)(O)O[C@@H]2[C@@H]3O)c(=O)[nH]1 [Example 10, (1R,21R,23R,24R)-23-(2-Amino-6-oxo-6,9-dihydro-1H-purin-9-yl)-3,18,24-trihydroxy-2,4,17,19,22-pentaoxa-7,10,12,14-tetraaza-3lambda5,18lambda5-diphosphatetracyclo[19.2.1.06,14.08,13]tetracosa-6,8,10,12-tetraene-3,18-dione] | < 1 µM | 10 to 100 µM | 1 to 9.99 µM | – |
| Nc1ncnc2c1ncn2[C@@H]1O[C@@H]2COP(=O)(S)OCCn3c(nc4cncnc43)COP(=O)(S)O[C@@H]1[C@@H]2O (stereo partly drawn) [Example 8, (1R,21R,23R,24R)-23-(6-Amino-9H-purin-9-yl)-24-hydroxy-3,18-disulfanyl-2,4,17,19,22-pentaoxa-7,10,12,14-tetraaza-3lambda5,18lambda5-diphosphatetracyclo[19.2.1.06,14.08,13]tetracosa-6,8(13),9,11-tetraene-3,18-dione] | 1 to 9.99 µM | 10 to 100 µM | 10 to 100 µM | – |
| Nc1nc2c(ncn2[C@@H]2O[C@@H]3COP(=O)(S)OCCn4nc(-c5ccncc5)nc4COP(=O)(S)O[C@@H]2[C@@H]3F)c(=O)[nH]1 (single isomer, unassigned) [Example 34D] | 1 to 9.99 µM | – | – | – |
| Nc1nc2c(ncn2[C@@H]2O[C@@H]3COP(=O)(S)OCCn4nc(-c5cncs5)nc4COP(=O)(S)O[C@@H]2[C@@H]3F)c(=O)[nH]1 (single isomer, unassigned) [Example 16A] | < 1 µM | – | – | – |
| Nc1nc2c(ncn2[C@@H]2O[C@@H]3COP(=O)(S)OCCn4nc(-c5cncs5)nc4COP(=O)(S)O[C@@H]2[C@@H]3F)c(=O)[nH]1 (single isomer, unassigned) [Example 16D] | < 1 µM | – | – | – |
| C[C@H]1Cn2c(nc3cncnc32)COP(=O)(S)O[C@@H]2[C@H](F)[C@@H](COP(=O)(S)O1)O[C@H]2n1cnc2c(=O)[nH]c(N)nc21 (single isomer, unassigned) [Example 33C] | – | 10 to 100 µM | – | – |
| Nc1nc2c(ncn2[C@@H]2O[C@@H]3COP(=O)(O)OCCCn4c(nc5cncnc54)COP(=O)(O)O[C@@H]2[C@@H]3O)c(=O)[nH]1 [Example 2, (1R,22R,24R,25R)-24-(2-Amino-6-oxo-6,9-dihydro-1H-purin-9-yl)-3,19,25-trihydroxy-2,4,18,20,23-pentaoxa-710,122,14-tetraaza-3lambda5,19lambda5-diphosphatetracyclo[20.2.1.06,14.08,13]pentacosa-6,8(13),9,11-tetraene-3,19-dione] | – | 10 to 100 µM | 10 to 100 µM | – |
| Nc1nc2c(ncn2[C@@H]2O[C@@H]3COP(=O)(S)OCCn4c(nc5cncnc54)COP(=O)(S)O[C@@H]2[C@@H]3F)c(=O)[nH]1 (single isomer, unassigned) [Example 1A] | – | – | < 1 µM | – |
| Nc1nc2c(nnn2[C@@H]2O[C@@H]3COP(=O)(S)OCCn4c(nc5cncnc54)COP(=O)(S)O[C@@H]2[C@@H]3F)c(=O)[nH]1 (single isomer, unassigned) [Example 24A] | < 1 µM | – | – | – |
| Nc1nc2c(ncn2[C@@H]2O[C@@H]3COP(=O)(S)OCCn4nc(-c5ccncc5)nc4COP(=O)(S)O[C@@H]2[C@@H]3F)c(=O)[nH]1 (single isomer, unassigned) [Example 34C] | < 1 µM | – | – | – |

Second part, led by results:

| IC50 ([1]; read-out: Murine Binding IC50) | SMILES | IC50 [2, 4] | IC50 [3, 5] | also measured |
| --- | --- | --- | --- | --- |
| 1 to 9.99 µM | Nc1nc2c(ncn2[C@@H]2O[C@@H]3COP(=O)(O)OCCn4c(nc5cncnc54)COP(=O)(S)O[C@@H]2[C@@H]3F)c(=O)[nH]1 (single isomer, unassigned) [Example 5B] | – | – | – |
| < 1 µM | Nc1nc2c(ncn2[C@@H]2O[C@@H]3COP(=O)(S)OCCn4c(nc5cncnc54)COP(=O)(O)O[C@@H]2[C@@H]3F)c(=O)[nH]1 (single isomer, unassigned) [Example 6B] | – | – | – |
| < 1 µM | Nc1nc2c(ncn2[C@@H]2O[C@@H]3COP(=O)(S)OCCn4c(nc5cncnc54)COP(=O)(S)O[C@@H]2[C@@H]3O)c(=O)[nH]1 (single isomer, unassigned) [Example 15C] | – | – | – |
| < 1 µM | Nc1nc2c(ncn2[C@@H]2O[C@@H]3COP(=O)(S)OCCn4c(nc5c(=O)[nH]cnc54)COP(=O)(S)O[C@@H]2[C@@H]3F)c(=O)[nH]1 (single isomer, unassigned) [Example 3C] | – | – | – |
| < 1 µM | Nc1nc2c(ncn2[C@@H]2O[C@@H]3COP(=O)(S)OCCn4nc(-c5cncs5)nc4COP(=O)(S)O[C@@H]2[C@@H]3F)c(=O)[nH]1 (single isomer, unassigned) [Example 16C] | – | – | – |
| < 1 µM | Nc1nc2c(ncn2[C@@H]2O[C@@H]3COP(=O)(S)OCCn4c(nc5cnc(C6CC6)nc54)COP(=O)(S)O[C@@H]2[C@@H]3F)c(=O)[nH]1 (single isomer, unassigned) [Example 12C] | – | – | – |
| < 1 µM | Nc1nc2c(ncn2[C@@H]2O[C@@H]3COP(=O)(S)OCCn4c(nc5cncnc54)COP(=O)(S)O[C@@H]2[C@@H]3O)c(=O)[nH]1 (mixture of isomers) [Example 15A, (1R,21R,23R,24R)-23-(2-Amino-6-oxo-6,9-dihydro-1H-purin-9-yl)-24-hydroxy-3,18-disulfanyl-2,4,17,19,22-pentaoxa-7,10,12,14-tetraaza-3lambda5,18lambda5-diphosphatetracyclo[19.2.1.06,14.08,13]tetracosa-6,8,10,12-tetraene-3,18-dione] | – | – | – |
| 1 to 9.99 µM | Nc1nc2c(ncn2[C@@H]2O[C@@H]3COP(=O)(S)OCCn4c(nc5c(=O)[nH]cnc54)COP(=O)(S)O[C@@H]2[C@@H]3F)c(=O)[nH]1 (single isomer, unassigned) [Example 3B] | – | – | – |
| < 1 µM | Nc1nc2c(ncn2[C@@H]2O[C@@H]3COP(=O)(S)OCCn4c(nc5cc(Cl)cnc54)COP(=O)(S)O[C@@H]2[C@@H]3F)c(=O)[nH]1 (single isomer, unassigned) [Example 14C] | – | – | – |
